Patent publication EP0475413B1, “Carbocyclic nucleoside analogs useful as immunosuppressants” (HOECHST MARION ROUSSEL, INC., priority 1990, dated 1992)
pIC50: −log10 of the molar value. Structures can show the parent of a compound that is named as a salt.

Legend:
rat PMNs = experiment: Inhibition of rrIFN-γ priming of rat PMN, Superoxide Anion (O2-) assay; format: cell-based; conditions: PMNs from rat air pouch elicited with rHuIL-1 (25ng/pouch); PMA (200ng/mL) as stimulus, rrIFN-γ (1000 Units/mL); compound 0 to 1000µM; superoxide anion readout; read-out: IC₅₀ (inhibits the rrIFN-γ priming of rat PMN in vitro)
Method: The rat air pouch model of inflammation was used to obtain rat PMNs using 25ng/pouch of recombinant human interleukin-1 (rHuIL-1) to elicit the cells essentially according to the method of Esser et al. [Internat. J. Tissue Reactions XI, 291 (1989)]. PMNs were incubated along with phorbol myristate acetate (PMA) (200ng/mL), which acts as a soluble stimulus, and rrIFN-γ (1000 Units/mL), which act as a stimulatory lymphokine, in the presence of various concentrations of (1R,3S)-Cis-1-(9-adenyl)-3-hydroxy-4-cyclopentene (0 to 1000µM). The degree of macrophage priming was measured using the Superoxide Anion (O₂⁻) assay as described by Edwards et al. [Science 239, 769 (1988)].

[1] = tested on: Rat peritoneal macrophages; experiment: Inhibition of priming of rat peritoneal macrophages, Superoxide Anion (O2-) assay; format: cell-based; conditions: Peritoneal macrophage, opsonized zymosan (3 mg/mL) as stimulus, rrIFN-γ (1000Units/mL), compound 0 to 1000µM, superoxide anion readout, read-out: IC₅₀ (inhibits the priming of rat macrophages in vitro)
Method: Rat peritoneal macrophages were isolated and grown in cell culture essentially as described by Edwards et al. [Science 239, 769 (1988)]. Macrophages were incubated along with opsonized zymosan (3 mg/mL), which acts as a particulate stimulus, and recombinant rat γ-interferon (rrIFN-γ)(1000Units/mL), which acts as an activating lymphokine, in the presence of various concentrations of (1R,3S)-Cis-1-(9-adenyl)-3-hydroxy-4-cyclopentene (0 to 1000µM). The degree of macrophage priming was measured using the Superoxide Anion (O₂⁻) assay as described by Edwards et al. [Science 239, 769 (1988)].

pIC50 (rat PMNs): 7.82
pIC50 [1]: 4.60
Compound: Nc1ncnc2c1ncn2[C@H]1C=C[C@@H](O)C1 [Example 1, (1R,3S)-Cis-1-(9-adenyl)-3-hydroxy-4-cyclopentene hydrochloride]
